Here are results for nine compounds from patent US20230263863A1, “COMPOSITIONS HAVING NEUROREGENERATIVE APPLICATIONS” (GRIFOLS WORLDWIDE OPERATIONS LIMITED, priority 2020, published 2023).

Data set [1] has as its system SH-SY5Y cells. Put plainly: Neurite outgrowth (Outgrowth Fold Change) in undifferentiated SH-SY5Y cells. Particulars: for neurite outgrowth / differentiation over the concentration range: DFO compared with ApoTf; for neurite outgrowth or differentiation: FIG. 5; for neurogenesis / differentiation (neurite outgrowth): all proteins 0.2 mg/mL. The class given is cell-based, human. How it is done: (§1) Undifferentiated SH-SY5Y cells were seeded into 96 well clear bottom plates in media containing 0.1% FBS. A serum-free base media was utilized as recommended by the supplier for SH-SY5Y cells (Sigma, Cat #94030304-1VL). Twenty-four hours after seeding cells, a 3× stock solution of ApoTf, final concentrations indicated on the x-axis, in serum free base media was added to the cells. ApoTf was obtained and purified from pooled human plasma and dosed at a final concentration of 0.2 mg/mL. Cells were allowed to differentiate for 6 days. Neurite growth was assessed by imaging and image analysis. At the time of analysis, a 10× solution of Tubulin Tracker (Molecular Probes, T34075) and Hoechst 33342 (Molecular Probes #H3570) nuclear stain was prepared.
Briefly, Tubulin Tracker dissolved in DMSO was diluted 1:1 with Pluronic F-127 and further diluted into HBSS to generate a 10× solution. Hoechst 33342 was added to the HBSS-Tubulin Tracker solution at 10 μg/mL to generate a 10× nuclear stain. The 10× staining solution (10 μL) was added directly to treated assay wells and incubated at 37° C. for 30 minutes. Following incubation, 110 μL of 0.4% Trypan Blue was added directly to assay wells and imaged on a Molecular Devices Nano imaging instrument. Nine images/well were acquired in the blue (Nuclei) and green (Tubulin) fluorescent channels for each image.
After obtaining images, the MetaExpress Neurite Outgrowth analysis module (Molecular Devices) was used to identify cells, cell bodies, and quantify neurites. The total number of neurite branches were divided by the total number of cells imaged to account for different numbers of cells in each test well. The Outgrowth Fold Change was determined by setting the untreated control cells to a value of 1 with all other treatments shown relative to untreated control.

The subject of the next data set is HIF-1α. Particulars: undifferentiated SH-SY5Y; US2016008437; cited from earlier work.
Data set [2] concerns SH-SY5Y cells. The experiment in a line: Cell number / proliferation of SH-SY5Y cells. The class given is cell-based, human. How it is done:
as §1, with “ApoTf was obtained and purified from pooled human plasma and dosed at a final concentration of 0.2 mg/mL.” left out
Briefly, Tubulin Tracker dissolved in DMSO was diluted 1:1 with Pluronic F-127 and further diluted into HBSS to generate a 10× solution. Hoechst 33342 was added to the HBSS-Tubulin Tracker solution at 10 μg/mL to generate a 10× nuclear stain. The 10× staining solution (10 μL) was added directly to treated assay wells and incubated at 37° C. for 30 minutes. […]
After obtaining images, the MetaExpress Neurite Outgrowth analysis module (Molecular Devices) was used to identify cells, cell bodies, and quantify neurites. […] The Outgrowth Fold Change was determined by setting the untreated control cells to a value of 1 with all other treatments shown relative to untreated control.

The subject of data set [3] is primary human brain cortex-derived neural progenitor cells. The experiment in a line: Differentiation of primary human neural progenitor cells to neurons and astrocytes. Particulars: ApoTf 0.8 mg/mL, 72 hours. It is filed as cell-based. How it is done:
Neural progenitor cells maintained as neurospheres were obtained from Lonza (PT-2599). Cells were thawed from a frozen vial of neurospheres and cultured in Human NeuroCult™ NS-A Complete Proliferation media (Stemcell Technologies) for 2 weeks. Neurospheres were dissociated to single cells and plated in Laminin coated wells of assay plates. The neural progenitor cells were seeded in NeuroCult™ NS-A Basal media containing 1/10th concentration of the recommended proliferation supplements, in the absence or presence of ApoTf (0.8 mg/mL) for 72 hours. At the time of analysis, cells were fixed with paraformaldehyde, stained for β-III-tubulin (R&D Systems, MAB1195) and GFAP (Invitrogen, PA3-16727), and imaged on a Molecular Devices Nano imaging instrument. Image analysis was performed by assessing the relative numbers of cells staining positive for β-III-tubulin or GFAP. Values for the indicated conditions are shown with standard deviations as “% β-III-Tubulin Positive” cells (FIG. 2A) or “% GFAP Positive” cells (FIG. 2B).

The nature of data set [4]: Iron saturation of transferrin samples by ICP-AES. It is filed as physicochemical. How it is done: Protein purity was determined by SDS-PAGE. Iron saturation levels were determined using ICP-AES in accordance with the procedures outlined in Manley et al., J Biol Inorg Chem (2009) 14:61-74, the contents of which are incorporated herein by reference.
In data set [5] the test system is SH-SY5Y cells. The experiment in a line: β-III-tubulin staining intensity in SH-SY5Y cells. Particulars: FIG. 1D. The class given is cell-based, human. Here is the method:
In this experiment, the SH-SY5Y cells were differentiated as described supra. At the time of analysis, cells were fixed with paraformaldehyde, stained for β-III-tubulin (R&D Systems, MAB1195), and imaged on a Molecular Devices Nano imaging instrument. Image analysis was performed by assessing the fluorescent intensity of cells stained with β-III-tubulin. Background from secondary antibody alone was subtracted from all values. Values are shown with standard deviations as “β-III-Tubulin Staining Intensity” for the indicated conditions.

In data set [6] the test system is MPTP-induced Parkinson's Disease in mice. The experiment in a line: Kinematic gait analysis in MPTP-induced Parkinson's Disease mice. Particulars: ApoTf 350 mg/kg i.p. once a day, days 1-7; analysis on day 7; n=15. It is filed as in vivo, C57BI/6J mice. Here is the method:
Animal experiments were performed at Charles River Laboratories (Finland), as specified in the license authorized by the national Animal Experiment Board of Finland and according to the National Institutes of Health (Bethesda, Md., USA) guidelines for the care and use of laboratory animals. Eight to twelve-week-old, C57BI/6J mice were housed at a standard temperature (22±1° C.) and in a light-controlled environment (lights on from 7 am to 8 pm) with ad libitum access to food and water.
Solutions of MPTP were prepared by dissolving MPTP hydrochloride in sterile saline at 2.42 mg/mL; corresponding to 2.0 mg/mL of active compound. To induce Parkinson's Disease, the MPTP was given by intraperitoneal injection twice a day at 20 mg/kg. […]
The captured videos of each mouse were first converted to the software-readable format. […] Gait pattern and movement analysis assessed 100 different parameters, including but not limited to stride time, swing time during a stride, speed, step width, stance and interlimb coordination. The data was analysed by using principal component analysis (PCA). The overall gait analysis was based on the PCA of all parameters for each mouse, with the obtained value showing the overall differences, measured as a “distance”, between control mice and MPTP, or MPTP plus ApoTf mice. […]

Setting [7] is: FIG. 1C, 0.1 mg/mL ApoTf vs untreated control.

Counter-ions that a name gives are not always drawn.

Consider `CC(=O)N(O)CCCCCNC(=O)CCC(=O)N(O)CCCCCNC(=O)CCC(=O)N(O)CCCCCN` [DFO, Deferoxamine mesylate, reference compound], for which, in the data set with SH-SY5Y cells [1] (FIG. 3A), the “concentration of maximal neurite outgrowth” value is 1 to 3 µM and the “neurite outgrowth / differentiation over the concentration range” value was “little neurite formation beyond that concentration”.

Take `O=C(O)CNC(=O)c1c(O)c2ccccc2n(Cc2ccccc2)c1=O` [IOX2, N-[[1,2-Dihydro-4-hydroxy-2-oxo-1-(phenylmethyl)-3-quinolinyl]carbonyl]-glycine, reference compound]: the “concentration inducing up-regulation of HIF-1α” value in the data set with HIF-1α is 1 µM. Also, the “neurite outgrowth or differentiation” value is listed as “no effect was observable” in the data set with SH-SY5Y cells [1] (4 μM IOX2) and “no neurite outgrowth or differentiation was observed” with SH-SY5Y cells [1] (IOX2-treated cells).

In the case of `C[C@@H](N)[C@H]1CC[C@H](C(=O)Nc2ccncc2)CC1.Cl.Cl` [Y-27632, trans-4-[(1R)-1-Aminoethyl]-N-4-pyridinylcyclohexanecarboxamide dihydrochloride, reference compound], in the data set with SH-SY5Y cells [1] (FIG. 8, Y-27632 50 μM), the “neurogenic effect (neurite outgrowth), alone” value is recorded as “strongly neurogenic”. Besides, the “neurogenic effect (neurite outgrowth), in the presence of ApoTf” value in the data set on SH-SY5Y cells [1] (FIG. 8, Y-27632 50 μM plus ApoTf 0.1 mg/mL) was “synergistic showing an effect beyond that exhibited by either molecule alone”.

On to “ApoTf: iron-free form of transferrin protein, purified from pooled human plasma”, for which the “cell numbers (cell proliferation)” value in the data set on SH-SY5Y cells [2] (FIG. 1B, up to 0.8 mg/mL apo-transferrin) is “concentration dependent increase in cell numbers”. Further, in the data set on SH-SY5Y cells [2] (setting [7]), the “cell proliferation (nuclear staining)” value is “profound effect on promoting cell proliferation”. Moreover, the “% β-III-tubulin positive cells (neurons)” value in data set [3] (FIG. 2A) is given as “dramatically increases the percentage of cells differentiated to neurons”. In addition, the “% GFAP positive cells (astrocytes)” value in data set [3] (FIG. 2B) was “dramatically increases”. For the same compound, in data set [4], the “Iron Saturation (%)” value is given as less than 0.3%. Further, the “β-III-Tubulin Staining Intensity” value in the data set on SH-SY5Y cells [5] is reported as “caused an increase in β-III-tubulin protein”. Also, the neurite outgrowth entry in the data set with SH-SY5Y cells [1] (FIG. 1A, ApoTf up to 0.8 mg/mL, 6 days) is recorded as “induce neurite outgrowth in a dose dependent manner”. Besides, the “neurite/tubulin outgrowth (tubulin staining)” value with SH-SY5Y cells [1] (setting [7]) was “promoting induction of neurite/tubulin outgrowth”. In the data set on SH-SY5Y cells [1] (FIG. 3A), the “neurite outgrowth / differentiation over the concentration range” value was “continues to increase differentiation even up to 9.9 μM”. In addition, the “neurogenesis / differentiation (neurite outgrowth)” value (from here on “neurogenesis / differentiation”) in the data set on SH-SY5Y cells [1] (FIG. 3B) was “did induce neurogenesis”. For the same compound, in the data set on SH-SY5Y cells [1] (FIGS. 7A-7D, ApoTf 0.1 mg/mL plus neurotrophic factor), the “differentiation (neurite outgrowth), factor combined with ApoTf” value is “synergistic effect with other neurotrophic factors and peptides”. Besides, the “movement and gait (Distance from Control, PCA)” value in data set [6] was “significantly ameliorated”.

Consider “ApoTransferrin A: apo-transferrin sample, Grifols, prepared in house”, for which the “Iron Saturation (%)” value in data set [4] turned out to be 0.27%.

With “ApoTransferrin B: apo-transferrin sample, Grifols, prepared in house”, the “Iron Saturation (%)” value in data set [4] turned out to be 0.59%.

Turning to “ApoTransferrin C: apo-transferrin sample, Grifols, prepared in house”, the “Iron Saturation (%)” value in data set [4] turned out to be 0.24%.

Regarding “HoloTf: iron-saturated form of transferrin, purified from pooled human plasma [reference compound]”, the “Iron Saturation (%)” value in data set [4] worked out at 100%. For the same compound, the “neurogenesis / differentiation” value in the data set with SH-SY5Y cells [1] (FIG. 4) is “unable to induce differentiation”.

Regarding “recombinant ApoTf: recombinant wild-type human transferrin, SEQ ID NO: 1, expressed in 293-6E cells”, the “neurogenesis / differentiation” value in the data set with SH-SY5Y cells [1] (FIG. 3B) is “did induce neurogenesis”.
